How the values were obtained:
KRAS G12D = KRAS G12D (Homo sapiens, UniProt P01116, G12D); assay: GDP-GTP exchange assay (bodipy-GDP/GppNHp, SOS1), KRAS G12D; format: biochemical; details: KRAS_G12D exchange assay IC50, 4 h pre-incubation, value for the most potent isomer quoted
Method: (§1) The inhibitor potency of the exemplified compounds was determined in a fluorescence based guanine nucleotide exchange assay, which measures the exchange of bodipy-GDP (fluorescently labeled GDP) for GppNHp (Non-hydrolyzable GTP analog) to generate the active state of KRAS in the presence of SOS1 (guanine nucleotide exchange factor). Inhibitors were serially diluted in DMSO and a volume of 0.1 μL was transferred to the wells of a black low volume 384-well plate. 5 μL/well volume of bodipy-loaded KRAS G12D diluted to […] in assay buffer (25 mM Hepes pH 7.5, 50 mM NaCl, 10 mM mgCl2 and 0.01% Brij-35) was added to the plate and pre-incubated with inhibitor for 4 h at ambient temperature. Appropriate controls (enzyme with no inhibitor or with a G12D inhibitor) were included on the plate. The exchange was initiated by the addition of a 5 μL/well volume containing 1 mM GppNHp and 300 nM SOS1 in assay buffer. The 10 μL/well reaction concentration of the bodipy-loaded KRAS G12D, GppNHp, and SOS1 were 2.5 nM, 500 uM, and 150 nM, respectively. The reaction plates were incubated at ambient temperature for 2 h, a time estimated for complete GDP-GTP exchange in the absence of inhibitor. For the KRAS G12V mutant, similar guanine nucleotide exchange assays were used with 2.5 nM as final concentration for the bodipy loaded KRAS proteins and 3 h incubation after adding GppNHp-SOS1 mixture. A cyclic peptide described to selectively bind G12D mutant (Sakamoto et al., BBRC 484.3 (2017), 605-611) or internal compounds with confirmed binding were used as positive controls in the assay plates. Fluorescence intensities were measured on a PheraStar plate reader instrument (BMG Labtech) with excitation at 485 nm and emission at 520 nm.
(§2) Either GraphPad prism or Genedata Screener SmartFit was used to analyze the data. The IC50 values were derived by fitting the data to a four parameter logistic equation producing a sigmoidal dose-response curve with a variable Hill coefficient.
(§3) The symbol “t” indicates IC50≤100 nM, “††” indicates IC50>100 nM but ≤1 μM; and “†††” indicates IC50 is >1 μM but ≤5 μM, “††††” indicates IC50 is >5 μM but ≤10 μM. “NA” indicates IC50 not available.

KRAS G12V = KRAS G12V (Homo sapiens, UniProt P01116, G12V); assay: GDP-GTP exchange assay (bodipy-GDP/GppNHp, SOS1), KRAS G12V; format: biochemical; details: KRAS_G12V exchange assay IC50, value for the most potent isomer quoted; for IC50: read-out: G12V_exchange
Sequence of KRAS G12V (P01116 1-188 isoform P01116-2 G12V): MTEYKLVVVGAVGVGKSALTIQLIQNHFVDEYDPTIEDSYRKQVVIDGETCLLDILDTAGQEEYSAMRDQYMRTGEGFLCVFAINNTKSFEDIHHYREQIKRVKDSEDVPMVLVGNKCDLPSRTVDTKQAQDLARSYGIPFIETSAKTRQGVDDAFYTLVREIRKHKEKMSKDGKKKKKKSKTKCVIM
Method: as §1, §2, §3

Sequence of KRAS G12D (P01116 1-188 isoform P01116-2 G12D): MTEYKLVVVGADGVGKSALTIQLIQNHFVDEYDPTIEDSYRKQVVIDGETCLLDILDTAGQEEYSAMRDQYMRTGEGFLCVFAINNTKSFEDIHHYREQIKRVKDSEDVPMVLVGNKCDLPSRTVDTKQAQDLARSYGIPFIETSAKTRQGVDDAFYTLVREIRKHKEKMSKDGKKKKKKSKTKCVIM

G12D_exchange (KRAS G12D) | IC50 (KRAS G12V) [nM] | G12V_exchange (KRAS G12V) | IC50 (KRAS G12D; read-out: G12D_exchange) [nM] | SMILES
† | 100 to 1000 | – | – | Cc1nc2c(F)c(-c3cccc(Cl)c3Cl)c(CCC#N)cc2c2c1cc([C@@H](C)N1CCCN(c3ccc(C#N)cc3)C1=O)n2[C@H]1[C@H]2CN[C@@H]1C2 [Example 25, 4-(3-((1R)-1-(1-((1R,4R,5S)-2-azabicyclo[2.1.1]hexan-5-yl)-8-(2-cyanoethyl)-7-(2,3-dichlorophenyl)-6-fluoro-4-methyl-1H-pyrrolo[3,2-c]quinolin-2-yl)ethyl)-2-oxotetrahydropyrimidin-1(2H)-yl)benzonitrile]
† | 100 to 1000 | – | – | Cc1cc(N2CCCN([C@H](C)c3cc4c(C)nc5c(F)c(-c6cccc(Cl)c6Cl)c(CCC#N)cc5c4n3[C@H]3[C@H]4CN[C@@H]3C4)C2=O)ccn1 [Example 26, 3-(1-((1R,4R,5S)-2-azabicyclo[2.1.1]hexan-5-yl)-7-(2,3-dichlorophenyl)-6-fluoro-4-methyl-2-((R)-1-(3-(2-methylpyridin-4-yl)-2-oxotetrahydropyrimidin-1(2H)-yl)ethyl)-1H-pyrrolo[3,2-c]quinolin-8-yl)propanenitrile]
† | – | † | – | Cc1nc2c(F)c(-c3cccc(Cl)c3Cl)c(CCC#N)cc2c2c1cc([C@@H](C)N1CCCN(c3ccnc(F)c3)C1=O)n2[C@H]1[C@H]2CN[C@@H]1C2 [Example 27, 3-(1-((1R,4R,5S)-2-azabicyclo[2.1.1]hexan-5-yl)-7-(2,3-dichlorophenyl)-6-fluoro-2-((R)-1-(3-(2-fluoropyridin-4-yl)-2-oxotetrahydropyrimidin-1(2H)-yl)ethyl)-4-methyl-1H-pyrrolo[3,2-c]quinolin-8-yl)propanenitrile]
† | – | † | – | CC(=O)NCc1cccc(N2CCCN([C@H](C)c3cc4c(C)nc5c(F)c(-c6cccc(Cl)c6Cl)c(CCC#N)cc5c4n3[C@H]3[C@H]4CN[C@@H]3C4)C2=O)c1 [Example 28, N-(3-(3-((1R)-1-(1-((1R,4R,5S)-2-azabicyclo[2.1.1]hexan-5-yl)-8-(2-cyanoethyl)-7-(2,3-dichlorophenyl)-6-fluoro-4-methyl-1H-pyrrolo[3,2-c]quinolin-2-yl)ethyl)-2-oxotetrahydropyrimidin-1(2H)-yl)benzyl)acetamide]
† | 100 to 1000 | – | – | Cc1nc2c(F)c(-c3cccc(Cl)c3Cl)c(CCC#N)cc2c2c1cc([C@@H](C)N1CCCN(c3ccnc(C#N)c3)C1=O)n2[C@H]1[C@H]2CN[C@@H]1C2 [Example 29, 4-(3-((1R)-1-(1-((1R,4R,5S)-2-azabicyclo[2.1.1]hexan-5-yl)-8-(2-cyanoethyl)-7-(2,3-dichlorophenyl)-6-fluoro-4-methyl-1H-pyrrolo[3,2-c]quinolin-2-yl)ethyl)-2-oxotetrahydropyrimidin-1(2H)-yl)picolinonitrile]
† | 100 to 1000 | – | – | Cc1nc2c(F)c(-c3cccc(Cl)c3Cl)c(CCC#N)cc2c2c1cc([C@@H](C)N1CCCN(c3ccnc(N(C)C)c3)C1=O)n2[C@H]1[C@H]2CN[C@@H]1C2 [Example 30, 3-(1-((1R,4R,5S)-2-azabicyclo[2.1.1]hexan-5-yl)-7-(2,3-dichlorophenyl)-2-((R)-1-(3-(2-(dimethylamino)pyridin-4-yl)-2-oxotetrahydropyrimidin-1(2H)-yl)ethyl)-6-fluoro-4-methyl-1H-pyrrolo[3,2-c]quinolin-8-yl)propanenitrile]
† | 100 to 1000 | – | – | Cc1nc2c(F)c(-c3cccc(Cl)c3Cl)c(CCC#N)cc2c2c1cc([C@@H](C)N1CCCN(c3ccnc(C(F)F)c3)C1=O)n2[C@H]1[C@H]2CN[C@@H]1C2 [Example 31, 3-(1-((1R,4R,5S)-2-azabicyclo[2.1.1]hexan-5-yl)-7-(2,3-dichlorophenyl)-2-((R)-1-(3-(2-(difluoromethyl)pyridin-4-yl)-2-oxotetrahydropyrimidin-1(2H)-yl)ethyl)-6-fluoro-4-methyl-1H-pyrrolo[3,2-c]quinolin-8-yl)propanenitrile]
† | – | † | – | Cc1nc2c(F)c(-c3cccc(Cl)c3Cl)c(CCC#N)cc2c2c1cc([C@@H](C)N1CCCN(c3ccnc(N)c3)C1=O)n2[C@H]1[C@H]2CN[C@@H]1C2 [Example 32, 3-(2-((R)-1-(3-(2-aminopyridin-4-yl)-2-oxotetrahydropyrimidin-1(2H)-yl)ethyl)-1-((1R,4R,5S)-2-azabicyclo[2.1.1]hexan-5-yl)-7-(2,3-dichlorophenyl)-6-fluoro-4-methyl-1H-pyrrolo[3,2-c]quinolin-8-yl)propanenitrile]
† | 100 to 1000 | – | – | Cc1nc2c(F)c(-c3cccc(Cl)c3Cl)c(CCC#N)cc2c2c1cc([C@@H](C)N1CCCN(c3ccncn3)C1=O)n2[C@H]1[C@H]2CN[C@@H]1C2 [Example 33, 3-(1-((1R,4R,5S)-2-azabicyclo[2.1.1]hexan-5-yl)-7-(2,3-dichlorophenyl)-6-fluoro-4-methyl-2-((R)-1-(2-oxo-3-(pyrimidin-4-yl)tetrahydropyrimidin-1(2H)-yl)ethyl)-1H-pyrrolo[3,2-c]quinolin-8-yl)propanenitrile]
† | – | † | – | Cc1nc2c(F)c(-c3cccc(Cl)c3Cl)c(CCC#N)cc2c2c1cc([C@@H](C)N1CCCN(c3cncnc3)C1=O)n2[C@H]1[C@H]2CN[C@@H]1C2 [Example 34, 3-(1-((1R,4R,5S)-2-azabicyclo[2.1.1]hexan-5-yl)-7-(2,3-dichlorophenyl)-6-fluoro-4-methyl-2-((R)-1-(2-oxo-3-(pyrimidin-5-yl)tetrahydropyrimidin-1(2H)-yl)ethyl)-1H-pyrrolo[3,2-c]quinolin-8-yl)propanenitrile]
– | 1000 to 5000 | – | 100 to 1000 | Cc1nc2c(F)c(-c3cccc(Cl)c3Cl)c(CCC#N)cc2c2c1cc([C@@H](C)N1CCCN(c3ccn(C)c(=O)c3)C1=O)n2[C@H]1[C@H]2CN[C@@H]1C2 [Example 36, 3-(1-((1R,4R,5S)-2-azabicyclo[2.1.1]hexan-5-yl)-7-(2,3-dichlorophenyl)-6-fluoro-4-methyl-2-((R)-1-(3-(1-methyl-2-oxo-1,2-dihydropyridin-4-yl)-2-oxotetrahydropyrimidin-1(2H)-yl)ethyl)-1H-pyrrolo[3,2-c]quinolin-8-yl)propanenitrile]
† | 100 to 1000 | – | – | Cc1nc2c(F)c(-c3cccc(Cl)c3Cl)c(CCC#N)cc2c2c1cc([C@@H](C)N1CCCN(c3cc[nH]c(=O)c3)C1=O)n2[C@H]1[C@H]2CN[C@@H]1C2 [Example 37, 3-(1-((1R,4R,5S)-2-azabicyclo[2.1.1]hexan-5-yl)-7-(2,3-dichlorophenyl)-6-fluoro-4-methyl-2-((R)-1-(2-oxo-3-(2-oxo-1,2-dihydropyridin-4-yl)tetrahydropyrimidin-1(2H)-yl)ethyl)-1H-pyrrolo[3,2-c]quinolin-8-yl)propanenitrile]
† | – | † | – | Cc1nc2c(F)c(-c3cccc(Cl)c3Cl)c(CCC#N)cc2c2c1cc([C@@H](C)N1CCCN(c3ccnc4sccc34)C1=O)n2[C@H]1[C@H]2CN[C@@H]1C2 [Example 38, 3-(1-((1R,4R,5S)-2-azabicyclo[2.1.1]hexan-5-yl)-7-(2,3-dichlorophenyl)-6-fluoro-4-methyl-2-((R)-1-(2-oxo-3-(thieno[2,3-b]pyridin-4-yl)tetrahydropyrimidin-1(2H)-yl)ethyl)-1H-pyrrolo[3,2-c]quinolin-8-yl)propanenitrile]
† | – | † | – | CC(O)c1nc2c(F)c(-c3cccc(Cl)c3Cl)c(CCC#N)cc2c2c1cc([C@@H](C)N1CCCN(c3ccncc3)C1=O)n2[C@H]1[C@H]2CN[C@@H]1C2 (stereo partly drawn) [Example 39, 3-(1-((1R,4R,5S)-2-azabicyclo[2.1.1]hexan-5-yl)-7-(2,3-dichlorophenyl)-6-fluoro-4-(1-hydroxyethyl)-2-((R)-1-(2-oxo-3-(pyridin-4-yl)tetrahydropyrimidin-1(2H)-yl)ethyl)-1H-pyrrolo[3,2-c]quinolin-8-yl)propanenitrile]
